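Compound exposure: 48 hours, 5 concentrations, 96-well plates. At the GI50, growth is halved.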 Calls of active or inactive are those of the source. No stated cut-off is given here; in the data, active = GI50 up to about 1.1 µM and inactive = higher.
Legend:
Experiment in all cases: DTP human tumour cell line panel, 48 h
[1] = system: 786-0
[2] = system: A498
[3] = system: A549
[4] = system: ACHN
[5] = system: BT-549
[6] = system: CAKI-1
[7] = system: CCRF-CEM
[8] = system: COLO 205
[9] = system: EKVX
[10] = system: HCT-116
[11] = system: HCT-15
[12] = system: HL-60
[13] = system: HOP-62
[14] = system: HOP-92
[15] = system: HT-29
[16] = system: Hs-578T
[17] = system: IGROV-1
[18] = system: K562
[19] = system: KM12
[20] = system: LOX IMVI
[21] = system: M14
[22] = system: MCF7
[23] = system: MDA-MB-231
[24] = system: MDA-MB-435
[25] = system: MDA-N
[26] = system: MOLT-4
[27] = system: Malme-3M
[28] = system: NCI-H226
[29] = system: NCI-H23
[30] = system: NCI-H460
[31] = system: NCI-H522
[32] = system: NCI/ADR-RES
[33] = system: OVCAR-3
[34] = system: OVCAR-4
[35] = system: OVCAR-5
[36] = system: OVCAR-8
[37] = system: PC-3
[38] = system: RPMI-8226
[39] = system: RXF 393
[40] = system: SF-268
[41] = system: SF-295
[42] = system: SF-539
[43] = system: SK-MEL-2
[44] = system: SK-MEL-5
[45] = system: SK-OV-3
[46] = system: SNB-19
[47] = system: SNB-75
[48] = system: SR
[49] = system: SW-620
[50] = system: T47D
[51] = system: TK-10
[52] = system: U-251
[53] = system: UACC-257
[54] = system: UACC-62
[55] = system: UO-31
[56] = system: DU-145
[57] = system: HCC 2998
[58] = system: SK-MEL-28
[59] = system: SN12C

SMILES: O=c1c(Cc2ccccc2)c(-c2ccccc2)[nH]n1C1=NCCN1
- GI50 [1]: 37.3 µM (inactive)
- GI50 [2]: > 100 µM (inactive)
- GI50 [3]: 40.5 µM (inactive)
- GI50 [4]: 29.3 µM (inactive)
- GI50 [5]: > 100 µM (inactive)
- GI50 [6]: 72.1 µM (inactive)
- GI50 [7]: 16.7 µM (inactive)
- GI50 [8]: 35.2 µM (inactive)
- GI50 [9]: 39.1 µM (inactive)
- GI50 [10]: 24.6 µM (inactive)
- GI50 [11]: 7.74 µM
- GI50 [12]: 15.1 µM (inactive)
- GI50 [13]: 56 µM (inactive)
- GI50 [14]: 44.7 µM (inactive)
- GI50 [15]: 24.2 µM (inactive)
- GI50 [16]: 39.4 µM (inactive)
- GI50 [17]: 36.5 µM (inactive)
- GI50 [18]: 53.5 µM (inactive)
- GI50 [19]: 61 µM (inactive)
- GI50 [20]: 15.5 µM (inactive)
- GI50 [21]: 25.3 µM (inactive)
- GI50 [22]: 40.1 µM (inactive)
- GI50 [23]: > 100 µM (inactive)
- GI50 [24]: 24.8 µM (inactive)
- GI50 [25]: 38.5 µM (inactive)
- GI50 [26]: 35.5 µM (inactive)
- GI50 [27]: 25.4 µM (inactive)
- GI50 [28]: 46 µM (inactive)
- GI50 [29]: 62.5 µM (inactive)
- GI50 [30]: 16.9 µM (inactive)
- GI50 [31]: 40.5 µM (inactive)
- GI50 [32]: 27.7 µM (inactive)
- GI50 [33]: 24.4 µM (inactive)
- GI50 [34]: 54.2 µM (inactive)
- GI50 [35]: 72.6 µM (inactive)
- GI50 [36]: 40 µM (inactive)
- GI50 [37]: 36.8 µM (inactive)
- GI50 [38]: 47 µM (inactive)
- GI50 [39]: 92.9 µM (inactive)
- GI50 [40]: 28.4 µM (inactive)
- GI50 [41]: 43.6 µM (inactive)
- GI50 [42]: 58.1 µM (inactive)
- GI50 [43]: 28.4 µM (inactive)
- GI50 [44]: 32.4 µM (inactive)
- GI50 [45]: > 100 µM (inactive)
- GI50 [46]: 76.4 µM (inactive)
- GI50 [47]: 22 µM (inactive)
- GI50 [48]: 22.8 µM (inactive)
- GI50 [49]: 38.6 µM (inactive)
- GI50 [50]: 45.3 µM (inactive)
- GI50 [51]: 37.6 µM (inactive)
- GI50 [52]: 33.6 µM (inactive)
- GI50 [53]: 52.6 µM (inactive)
- GI50 [54]: 32.2 µM (inactive)
- GI50 [55]: 42.6 µM (inactive)

SMILES: COc1cc(/C=C2\C[C@H]3[C@@H]4CC=C5C[C@@H](O)CC[C@]5(C)[C@H]4CC[C@]3(C)[C@H]2O)cc(OC)c1OC
- GI50 [1]: 10.8 µM (inactive)
- GI50 [2]: 20.9 µM (inactive)
- GI50 [3]: 9.79 µM (inactive)
- GI50 [4]: 6.27 µM (inactive)
- GI50 [5]: 15.4 µM (inactive)
- GI50 [6]: 20.2 µM (inactive)
- GI50 [8]: 7.31 µM (inactive)
- GI50 [56]: 18.3 µM (inactive)
- GI50 [9]: 34 µM (inactive)
- GI50 [57]: 17.3 µM (inactive)
- GI50 [10]: 8.05 µM (inactive)
- GI50 [11]: 7.05 µM
- GI50 [12]: 4.91 µM (inactive)
- GI50 [13]: 10.8 µM (inactive)
- GI50 [14]: 12.7 µM (inactive)
- GI50 [15]: 11.1 µM (inactive)
- GI50 [16]: 19.9 µM (inactive)
- GI50 [17]: 27.8 µM (inactive)
- GI50 [18]: 5.97 µM (inactive)
- GI50 [19]: 10.1 µM (inactive)
- GI50 [20]: 8.53 µM (inactive)
- GI50 [21]: 20.7 µM (inactive)
- GI50 [22]: 8.34 µM (inactive)
- GI50 [23]: 11.4 µM (inactive)
- GI50 [24]: 20 µM (inactive)
- GI50 [25]: 21.9 µM (inactive)
- GI50 [26]: 5.5 µM (inactive)
- GI50 [27]: 33.1 µM (inactive)
- GI50 [28]: 11 µM (inactive)
- GI50 [29]: 10.3 µM (inactive)
- GI50 [30]: 12 µM (inactive)
- GI50 [31]: 19.1 µM (inactive)
- GI50 [32]: 12.9 µM (inactive)
- GI50 [33]: 12.2 µM (inactive)
- GI50 [34]: 7.45 µM (inactive)
- GI50 [35]: 26.3 µM (inactive)
- GI50 [36]: 19 µM (inactive)
- GI50 [37]: 16.6 µM (inactive)
- GI50 [38]: 4.92 µM (inactive)
- GI50 [39]: 5.58 µM (inactive)
- GI50 [40]: 54.8 µM (inactive)
- GI50 [41]: 4.84 µM (inactive)
- GI50 [42]: 14.3 µM (inactive)
- GI50 [58]: 25.2 µM (inactive)
- GI50 [43]: 12.7 µM (inactive)
- GI50 [44]: 6.28 µM (inactive)
- GI50 [45]: 25.5 µM (inactive)
- GI50 [59]: 38.3 µM (inactive)
- GI50 [46]: 50.1 µM (inactive)
- GI50 [47]: 9.06 µM (inactive)
- GI50 [49]: 26.2 µM (inactive)
- GI50 [50]: 3.48 µM (inactive)
- GI50 [51]: 14.1 µM (inactive)
- GI50 [52]: 11 µM (inactive)
- GI50 [53]: 14.8 µM (inactive)
- GI50 [54]: 10.3 µM (inactive)
- GI50 [55]: 13 µM (inactive)

SMILES: Cc1ccc(N(Cc2ccccc2)Cc2ccccc2)cc1
- GI50 [1]: 73.3 µM (inactive)
- GI50 [2]: 61.4 µM (inactive)
- GI50 [3]: 36.9 µM (inactive)
- GI50 [4]: > 100 µM (inactive)
- GI50 [5]: > 100 µM (inactive)
- GI50 [6]: 47.9 µM (inactive)
- GI50 [7]: 28 µM (inactive)
- GI50 [8]: 24.3 µM (inactive)
- GI50 [56]: > 100 µM (inactive)
- GI50 [9]: 35.8 µM (inactive)
- GI50 [10]: 28.6 µM (inactive)
- GI50 [11]: 40.9 µM
- GI50 [12]: 51.4 µM (inactive)
- GI50 [13]: 26.7 µM (inactive)
- GI50 [15]: 29.9 µM (inactive)
- GI50 [16]: 40.5 µM (inactive)
- GI50 [17]: 23.7 µM (inactive)
- GI50 [18]: 55.8 µM (inactive)
- GI50 [19]: 29.5 µM (inactive)
- GI50 [20]: 34 µM (inactive)
- GI50 [21]: 55.2 µM (inactive)
- GI50 [22]: 37.8 µM (inactive)
- GI50 [23]: > 100 µM (inactive)
- GI50 [24]: 37.2 µM (inactive)
- GI50 [25]: 33.8 µM (inactive)
- GI50 [26]: 23.8 µM (inactive)
- GI50 [27]: 17 µM (inactive)
- GI50 [28]: > 100 µM (inactive)
- GI50 [29]: > 100 µM (inactive)
- GI50 [30]: > 100 µM (inactive)
- GI50 [31]: 22 µM (inactive)
- GI50 [32]: > 100 µM (inactive)
- GI50 [33]: 32.8 µM (inactive)
- GI50 [34]: 32.7 µM (inactive)
- GI50 [35]: > 100 µM (inactive)
- GI50 [36]: > 100 µM (inactive)
- GI50 [37]: 48.4 µM (inactive)
- GI50 [38]: 18.5 µM (inactive)
- GI50 [39]: 59 µM (inactive)
- GI50 [40]: 50.1 µM (inactive)
- GI50 [41]: 35.1 µM (inactive)
- GI50 [42]: > 100 µM (inactive)
- GI50 [58]: 54.2 µM (inactive)
- GI50 [43]: 24.3 µM (inactive)
- GI50 [44]: 32.1 µM (inactive)
- GI50 [45]: > 100 µM (inactive)
- GI50 [59]: 72.3 µM (inactive)
- GI50 [46]: > 100 µM (inactive)
- GI50 [47]: 68.7 µM (inactive)
- GI50 [49]: 46.3 µM (inactive)
- GI50 [50]: 30.9 µM (inactive)
- GI50 [51]: > 100 µM (inactive)
- GI50 [52]: 65.9 µM (inactive)
- GI50 [53]: 42.4 µM (inactive)
- GI50 [54]: 82.4 µM (inactive)
- GI50 [55]: 48.4 µM (inactive)

From ChEMBL document CHEMBL1201862, “PubChem BioAssay data set” (2004)
